Key:
primary keratinocytes [1] = assay: Cornified envelope formation in primary keratinocytes; type: cell-based, mouse; conditions: 10 nM staurosporine or 160 nM TPA for 24 hours; 7 day old cultures
Description: Cornified Envelope Quantitation. Keratinocytes were analyzed for cornified envelope formation as described (Nagae, S. et al, “Effect of retinoic acid on cornified envelope formation: difference between spontaneous envelope formation in vivo or in vitro and expression of envelope competence,” J. Invest., Dermatol., 89: 51–58, 1987), with minor modifications. Floating cells were harvested by collecting culture medium from each 60 mm dish and combining with two washes using phosphate-buffered saline without Ca^2+ and Ms^+2 (PBS). Cells were pelleted for 5 minutes at 1000 rpm in a benchtop clinical centrifuge and resuspended in 100 μl of lysis buffer (2% sodium dodecyl sulfate (SDS) and 20 mM dithiothreitol in PBS). Attached cells were harvested in 250 μl lysis buffer, combined with the preparation of floating cells, and incubated at 95° for 10 minutes. The non-solubilized, intact cornified envelopes, characteristic of terminally differentiated keratinocytes, were counted using a hemocytometer (Nagae, S. et al, “Effect of retinoic acid on cornified envelope formation: difference between spontaneous envelope formation in vivo or in vitro and expression of envelope competence,” J. Invest. Dermatol., 89: 51–58, 1987).
Floating and attached cell populations were harvested and cornified envelopes isolated. Data are mean values for three separate dishes±standard error of the mean from one experiment.
7 day old primary keratinocytes were cultured with or without 60 nM bryostatin for 15 hours. […] Each data bar is the average value from duplicate dishes with the range indicated by error bars.

c-fos mRNA = c-fos mRNA Northern blot in primary keratinocytes; type: cell-based, mouse; conditions: for time of maximum c-fos mRNA expression: 8 hour treatment, medium with 0.5% serum
Description: RNA Isolation and Northern Blot Analysis. RNA was isolated by ultracentrifugation of guanidine isothiocyanate lysates through a 5.7M cesium chloride gradient (Chirgwin, J. M. et al, “Isolation of biologically active ribonucleic acid from sources enriched in ribonuclease,” Biochemistry, 18: 5294–5299, 1979). 20 μg of total RNA was loaded per lane and electrophoresed through a 1% agarose gel containing 0.66 M formaldehyde (Davis, L. G. et al, “Basic Methods in Molecular Biology,” New York: Elsevier, 1986). RNA was blotted to reinforced nitrocellulose membrane (BA-S NC; Schleicher & Schuell, Keene, N.H.) and baked at 80° C. in a vacuum oven for 2 hours. Filter were pre-hybridized at 42° overnight in buffer containing 50% formamide as previously described (Yuspa, S. H. et al, “Expression of murine epidermal differentiation markers is tightly regulated by restricted extracellular calcium concentrations in vitro,” J. Cell Biol., 109: 1207–1217, 1989); approximately 20×10^6 dpm of probe was added and hybridization carried out overnight. The final wash performed at 65° using 0.2×SSC with 0.1% SDS. Filters were exposed to Kodak X-Omat AR film at −70° with intensifying screens. Mouse c-fos transcript was detected using a 1.2 kb Bg1 II to Sal I fragment from the Finkel-Biskis-Jinkins murine sarcoma virus sequence (Curran, T. et al, “Structure of the FBJ murine osteosarcoma virus genome: molecular cloning of the associated helper virus and the cellular homologue of the v-fos gene from mouse and human cells,” Mol. Cell. Biol., 3: 914–921, 1983). Following autoradiography, remaining probe was removed by washing in 1% glycerol in deionized water at 80° for 2 minutes (Davis, L. G. et al, “Basic Methods in Molecular Biology,” New York: Elsevier, 1986) and the filter was re-hybridized to a full-length rat glyceraldehyde phosphate dehydrogenase (GAPDH) cDNA in a pUC18 vector (Fort, P. et al, “Various rat adult tissues express only one major mRNA species from the glyceraldehydes-3-phosphate-dehydrogenase multigenic family,” Nucleic. Acids. Res., 13: 1431–1442, 1985). […]

primary keratinocytes [2] = type: cell-based, mouse
Description: EGF binding was assessed in 6-well tissue culture dishes plated at a cell density of 2.5×10^6 cells/well (Strickland, J. E. et al, “Interaction of epidermal growth factor with basal and differentiating epidermal cells of mice resistant and sensitive to carcinogenesis,” Carcinogenesis, 5: 735–740, 1984). […] A second set of cultures received, in addition, 1 μg/ml unlabelled EGF to assess non-specific binding of radioactive ligand. Following the incubation period, cultures were washed 4 times with ice-cold binding buffer, harvested in 1.5 ml lysis buffer (0.1 M tris (pH 7.4), 0.5% SDS, 1 mM EDTA), and radioactivity determined by scintillation counting.
Exposure of a variety of cultured cell types to TPA results in inhibition of EGF binding which is attributed to PKC-mediated phosphorylation of the EGF receptor (Diamond, L., “Tumor promoters and cell transformation,” In: D. Grunberger and S. P. Goff. (eds.), Mechanisms of Cellular Transformation by Carcinogenic Agents, pp. 73–133, New York: Pergamon Press. 1987).
Each point is the mean of trilpicate dishes±standard error of the mean.

[3] = test system: human bladder carcinoma cells; conditions: systemic administration at 1/10 or 1/20 the maximum tolerated dose; cited from earlier work
primary keratinocytes [4] = assay: Ornithine decarboxylase activity in primary keratinocytes; type: cell-based, mouse; conditions: 5 hours exposure
Description: Enzyme Assays. Activity of epidermal transglutaminase was determined by measuring cross-linking of ^3H-putrescine to dimethylcasein (20). Cell lysates were incubated at […] for 10 minutes to inactivate tissue transglutaminase. Ornithine decarboxylase activity of cell lysates was determined by quantifying release of ^14CO2 from ^14C-ornithine (Sako, T. et al, “Partial parallelism and partial blockade by bryostatin 1 of effects of phorbol ester tumor promoters on primary mouse epidermal cells,” Cancer Res., 47: 5445–5450, 1987).
Each point is the mean for four dishes±standard error of the mean from one experiment. Similar results were obtained in an additional experiment. As with staurosporine-mediated induction of transglutaminase, this response is restricted to a narrow dose range between 5 and 10 nM.

primary keratinocytes [5] = assay: Cell toxicity by trypan blue exclusion; type: cell-based, mouse
Description: Miscellaneous Assays. Cell toxicity was determined using trypan blue exclusion as a marker for viable cells. Cells growing in 60 mm culture dishes were washed once with PBS, incubated at room temperature with 1 ml 0.4% trypan blue in normal saline (GIBCO, Rockville, Md.), washed twice with PBS, then placed on ice until cells were counted. Protein in cell lysates was determined using a commercial colorimetric assay (Bio-Rad Laboratories, Richmond, Calif.).
Phase-contrast photomicrographs were taken at the indicated times after beginning treatment. Similar results were obtained in three additional experiments. Magnification was ×90.

[6] = test system: grafted SP-1 mouse papilloma cells; assay: Tumor formation from grafted SP-1 papilloma cells on nude mice, topical treatment; type: in vivo; conditions: 6.25 nmoles/treatment
Description: For grafting, BALB/c-derived nude mice, approximately two months-old, were used as hosts. Animals were anesthetized with Nembutal and sterile surgical technique was used. 0.5×10^6 SP-1 or 308 cells were grafted along with 6–8×10^6 primary SENCAR mouse dermal fibroblasts. […] Cells were removed from culture dishes by treatment with 0.25% trypsin-0.01% EDTA for approximately 10 min. at 36° and washed with medium. Suspensions of papilloma cells and primary dermal fibroblasts were centrifuged 5 min. at 1000 rpm, the medium aspirated, and the cell pellet applied to the graft bed using a sterile plastic transfer pipet. Graft tumors were measured weekly, using calipers, starting three weeks after grafting and for at least 5 additional weeks thereafter. As an approximate tumor volume, the height was multiplied by the smallest and largest lateral measurements. Data are expressed as means i standard error of the mean of approximate tumor volume in mm^3.
Five mice in each group were grafted Feb. 28, 1990 with 0.5×10^6 SP-1 cells+6×10^6 primary SENCAR mouse dermal fibroblasts.
Tumor measurements were begun three weeks after grafting and continued for eight weeks.
Ten mice in each group were grafted Mar. 22, 1990 with 0.5×10^6 SP-1 cells+6×10^6 primary SENCAR mouse dermal fibroblasts.
Ten mice in each group were grafted May 17, 1990 with 0.5×10^6 SP-1 cells+6×10^6 primary SENCAR mouse dermal fibroblasts. […]

Q: With `CCCCCCCCCCCCCC(=O)O[C@@H]1[C@@H](C)[C@@]2(O)[C@@H](C=C(CO)C[C@]3(O)C(=O)C(C)=C[C@@H]23)[C@H]2C(C)(C)[C@]12OC(C)=O` [TPA, 12-0-tetradecanoylphorbol-13-acetate, reference compound] as the molecule, how does the “increase in cornified envelopes relative to control cultures” value (primary keratinocytes [1]) read?
A: The value was 4 fold.

Q: And the “time of maximum c-fos mRNA expression” value (c-fos mRNA)?
A: Its value is 6 h.

Q: And the “reduction of 125I-EGF binding relative to controls” value (primary keratinocytes [2])?
A: Its value is 94%.

Q: What does the source list for `CN[C@@H]1C[C@H]2O[C@@](C)([C@@H]1OC)n1c3ccccc3c3c4c(c5c6ccccc6n2c5c31)C(=O)NC4` [staurosporine]?
A: retardation of tumor growth [3]: approximately 60%; time of maximum c-fos mRNA expression (c-fos mRNA): 8 h; c-fos mRNA expression on combined exposure with TPA (c-fos mRNA; staurosporine added just before TPA): higher expression of c-fos MRNA than TPA alone; ornithine decarboxylase activity (primary keratinocytes [4]): induction of ornithine decarboxylase activity; cells trypan blue positive (primary keratinocytes [5]; 7.5 hour exposure to 1 μM staurosporine): 74%; cells that took up trypan blue (primary keratinocytes [5]; ≦10 nM staurosporine): < 5%; effect of higher doses on papilloma growth [6]: appear to stimulate papilloma growth
